In patent US20250312323A1 (Cavion, Inc., priority 2018, published 2025):

Assays:
[1] = test system: patients with essential tremor; assay: T-CALM: electrocardiogram, vital signs, clinical laboratory, examinations; assay type: in vivo, human
Protocol: Electrocardiogram results were calculated as the average of the triplicate records at each time point. Baseline was defined as the mean of the triplicate values obtained pre-dose at Day 1. If this value was not available, the mean of the triplicate records obtained at screening were used.
Safety procedures involved collection of all TEAEs (treatment-emergent adverse events) coded into the Medical Dictionary for Regulatory Activities (MedDRA) version 20. Adverse events were classified by maximum severity, drug-related adverse events, serious adverse events, and adverse events leading to patient discontinuation.

[2] = test system: patients with essential tremor; assay: T-CALM: TETRAS activities of daily living subscale; assay type: in vivo, human; conditions: for TETRAS-ADL Score change from baseline, Median (minimum, maximum): Day 15, post-hoc
Protocol: The sum of the individual scores provides the overall score, ranging from 0 to 48. The complete TETRAS ADL Subscale is as follows.
Analyses of the TETRAS-ADL was conducted using the same type of ANCOVA model as described for the TETRAS-PS, using two-sided tests at the alpha=0.05 level of significance (FIG. 2 and Table 2).
Both sets of scores were statistically analyzed.

[3] = test system: patients with essential tremor; assay: T-CALM: TETRAS performance subscale, investigator rated
[4] = Day 15, change from baseline, N = 39
[5] = Day 28, change from baseline, N = 37

## CC(C)c1ccc(CC(=O)N[C@H](C)c2ccc(OCC(F)(F)F)cn2)cc1 [CX-8998]
[1]
  clinical laboratory parameters vs placebo: No clinically meaningful differences
  vital signs, ECG, neurological and physical examinations: No clinically significant abnormalities
[2]; Day 15, N 39
  Subjects with improvement of at least 5 points by TETRAS-ADL score, number: 18
[2]; [4]
  TETRAS-ADL Score, subjects with 0 change, n (%): 2 (5.1%)
  TETRAS-ADL Score, subjects with >0 to 1 point improvement, n (%): 5 (12.8%)
  TETRAS-ADL Score, subjects with >0 to 1 point worsening, n (%): 1 (2.6%)
  TETRAS-ADL Score, subjects with >1 to 2.5 point improvement, n (%): 2 (5.1%)
  TETRAS-ADL Score, subjects with >1 to 2.5 point worsening, n (%): 3 (7.7%)
  TETRAS-ADL Score, subjects with >2.5 to 5 point improvement, n (%): 7 (17.9%)
  TETRAS-ADL Score, subjects with >2.5 to 5 point worsening, n (%): 3 (7.7%)
  TETRAS-ADL Score, subjects with >5 to 10 point improvement, n (%): 11 (28.2%)
  TETRAS-ADL Score, subjects with >5 to 10 point worsening, n (%): 0
  TETRAS-ADL Score, subjects with >10 point improvement, n (%): 5 (12.8%)
  TETRAS-ADL Score, subjects with >10 point worsening, n (%): 0
[2]; patients Minimally Improved by CGI-I
  TETRAS-ADL Score change from baseline, Median (minimum, maximum): −2.0 (−11, 3)
[2]; patients Minimally Improved by PGIC
  TETRAS-ADL Score change from baseline, Median (minimum, maximum): −4.0 (−13, 4)
[2]; Day 28, N 37
  Subjects with improvement of at least 5 points by TETRAS-ADL score, number: 11
[2]; [5]
  TETRAS-ADL Score, subjects with 0 change, n (%): 5 (13.5%)
  TETRAS-ADL Score, subjects with >0 to 1 point improvement, n (%): 2 (5.4%)
  TETRAS-ADL Score, subjects with >0 to 1 point worsening, n (%): 3 (8.1%)
  TETRAS-ADL Score, subjects with >1 to 2.5 point improvement, n (%): 3 (8.1%)
  TETRAS-ADL Score, subjects with >1 to 2.5 point worsening, n (%): 3 (8.1%)
  TETRAS-ADL Score, subjects with >2.5 to 5 point improvement, n (%): 7 (18.9%)
  TETRAS-ADL Score, subjects with >2.5 to 5 point worsening, n (%): 3 (8.1%)
  TETRAS-ADL Score, subjects with >5 to 10 point improvement, n (%): 6 (16.2)
  TETRAS-ADL Score, subjects with >5 to 10 point worsening, n (%): 0
  TETRAS-ADL Score, subjects with >10 point improvement, n (%): 5 (13.5%)
  TETRAS-ADL Score, subjects with >10 point worsening, n (%): 0
[3]; [4]
  TETRAS-PS Score, subjects with 0 change, n (%): 2 (5.1%)
  TETRAS-PS Score, subjects with >0 to 1 point improvement, n (%): 3 (7.7%)
  TETRAS-PS Score, subjects with >0 to 1 point worsening, n (%): 2 (5.1%)
  TETRAS-PS Score, subjects with >1 to 2.5 point improvement, n (%): 4 (10.3%)
  TETRAS-PS Score, subjects with >1 to 2.5 point worsening, n (%): 5 (12.8%)
  TETRAS-PS Score, subjects with >2.5 to 5 point improvement, n (%): 10 (25.6%)
  TETRAS-PS Score, subjects with >2.5 to 5 point worsening, n (%): 2 (5.1%)
  TETRAS-PS Score, subjects with >5 to 10 point improvement, n (%): 8 (20.5%)
  TETRAS-PS Score, subjects with >5 to 10 point worsening, n (%): 0
  TETRAS-PS Score, subjects with >10 point improvement, n (%): 3 (7.7%)
  TETRAS-PS Score, subjects with >10 point worsening, n (%): 0
[3]; Day 28
  LS mean (±SE) change from baseline in TETRAS-PS scored by investigators (in person), primary endpoint analysis: −4.8±0.80
[3]; Day 28, N 37
  Subjects with improvement of at least 5 points by TETRAS-PS score, number: 16
  Subjects with improvement of at least 5 points by TETRAS-PS score, percent: (43.2%)
[3]; [5]
  TETRAS-PS Score, subjects with 0 change, n (%): 1 (2.6%)
  TETRAS-PS Score, subjects with >0 to 1 point improvement, n (%): 6 (15.4%)
  TETRAS-PS Score, subjects with >0 to 1 point worsening, n (%): 2 (5.1%)
  TETRAS-PS Score, subjects with >1 to 2.5 point improvement, n (%): 5 (12.8%)
  TETRAS-PS Score, subjects with >1 to 2.5 point worsening, n (%): 1 (2.6%)
  TETRAS-PS Score, subjects with >2.5 to 5 point improvement, n (%): 11 (28.2%)
  TETRAS-PS Score, subjects with >2.5 to 5 point worsening, n (%): 1 (2.6%)
  TETRAS-PS Score, subjects with >5 to 10 point improvement, n (%): 8 (20.5%)
  TETRAS-PS Score, subjects with >5 to 10 point worsening, n (%): 0
  TETRAS-PS Score, subjects with >10 point improvement, n (%): 4 (10.3%)
  TETRAS-PS Score, subjects with >10 point worsening, n (%): 0
